One compound from paper PMC3917258, “6-Bromoisatin Found in Muricid Mollusc Extracts Inhibits Colon Cancer Cell Proliferation and Induces Apoptosis, Preventing Early Stage Tumor Formation in a Colorectal Cancer Rodent Model” (Marine Drugs, 2013) can be followed below.

The structures appear in SMILES notation.

One series concerns HT29 cells. In words: Light microscopy of cell morphology (apoptosis). In kind it is cell-based, human. To be noted: 12 h. On the procedure: The cells were harvested from flasks by trypsinization (1× Trypsin-EDTA) and were seeded (20,000 cells/well) into clear 96-well plates (Costar®, Mt Martha, VIC, Australia) for measurement of cell viability and white (opaque) 96-well plates (Interpath, Heidelberg West, VIC, Australia) for determination of apoptosis and necrosis. HT29 cells were incubated for 48 h, then the media was removed and the cells were washed with PBS. To treat the cells, synthetic 6-bromoisatin was dissolved in 100% dimethylsulphoxide (DMSO) then diluted in media and added to the cells at a range of concentrations from 0.1 to 0.01 mg/mL, in triplicate (final DMSO concentration of 1%). 1% DMSO controls were also included on each plate. Staurosporine (5 µM) for apoptosis and lysis solution (5 μL/well, Promega, Alexandria, NSW, Australia) for necrosis were added to the white plates in triplicate, as positive controls. All cells were treated for 12 h. Morphological changes in the cells were observed on an Olympus CK2 inverted optical microscope (×400 magnification) 12 h after treatment. To measure cell viability, the MTT assay was applied, which measures the reduction of MTT tetrazolium salt to formazan, as previously described. To measure necrosis and apoptosis, CytoTox-ONE Homogeneous Membrane Integrity Assay reagent (Promega) and Caspase-Glo 3/7® assay (Promega) were applied respectively, according to our previous study. These assays were all repeated in triplicate on three separate occasions (n = 3).

In series [1] the test system is epithelial cells of distal colon. The series is described as follows: AARGC mouse model: apoptotic index. Type of series: in vivo, mice (C57BL/6J). On the procedure: (§1) This experiment was conducted under Flinders animal welfare approval number 751-10. A total of 38 wild-type (C57BL/6J) male mice aged 10 weeks were obtained from the Animal Resource Centre, Perth, Western Australia. Mice were divided randomly into 4 groups (ten mice in each treatment group and 8 mice in the sunflower oil only control group) and housed in 8 cages (four to five mice per cage). The mice were given water and food (rodent chow) ad libitum and maintained at the temperature of 22 ± 2 °C and humidity of 80% ± 10% with a 12 h light/dark cycle. Mice were weighed every five days and on the day of kill, and monitored daily for signs of illness, such as weight and hair loss, diarrhea, constipation, rectal bleeding, labored breathing, lethargy, eye and nose discharge.
(§2) To detect the early stage prevention of colon cancer, an established AARGC rodent model with injection of the carcinogen AOM was used. Synthetic 6-bromoisatin at 3 different dosages (0.025, 0.05 and 0.1 mg/g body weight) was administered to mice by daily oral gavage in 100 µL sunflower oil, containing 0.02% Vitamin E, for two weeks. The control group was gavaged with sunflower oil (containing 0.02% Vitamin E) only. After two weeks, all mice were injected with a single intraperitoneal (i.p.) injection of AOM at a dosage of 10 mg/kg bodyweight and euthanized 6 h later by cervical dislocation under anesthesia. […] The distal colon of each mouse was excised and fixed in 10% buffered formalin for 24 h and then embedded in paraffin for histological and immunohistological examination.
Distal colon segments were embedded in paraffin and sectioned at 4 µm (3–4 sections per mouse), then stained with hematoxylin, to evaluate apoptosis in epithelial cells of distal colon sections. The slides were examined under a light microscope (Olympus BH-2, Mt Waverly, VIC, Australia, 400× magnification) to identify the apoptotic cells, by characteristic morphological changes such as cell shrinkage, condensed chromatin and sharply delineated cell borders surrounded by an unstained halo [26, 49]. Twenty randomly chosen crypts were used to calculate the percent of apoptotic cells per crypt. The mean crypt column height was also determined.

Another series deals with distal colon crypts. In words: AARGC mouse model: crypt height. Type of series: in vivo, mice (C57BL/6J). To be noted: 0.025-0.1 mg/g daily oral gavage 14 days, 6 h post AOM. On the procedure: as §1
To detect the early stage prevention of colon cancer, an established AARGC rodent model with injection of the carcinogen AOM was used. Synthetic 6-bromoisatin at 3 different dosages (0.025, 0.05 and 0.1 mg/g body weight) was administered to mice by daily oral gavage in 100 µL sunflower oil, containing 0.02% Vitamin E, for two weeks. […]
Distal colon segments were embedded in paraffin and sectioned at 4 µm (3–4 sections per mouse), then stained with hematoxylin, to evaluate apoptosis in epithelial cells of distal colon sections. […] The mean crypt column height was also determined.

The nature of series [2]: Plasma liver enzymes AST, ALT, ALP (hepatotoxicity). Type of series: in vivo, mice (C57BL/6J). The following applies: 0.025-0.1 mg/g daily gavage two weeks, versus oil control. How it is done: as §2
Blood samples (0.5–1 mL) were obtained from the mice under anesthesia by cardiac puncture at time of kill and transferred to Gribbles Veterinary Pathology laboratory, Adelaide within heparinized vacutainer tubes then centrifuged to separate into the cell layer for hematology analysis (Abbott Cell Dyn 3700 analyzer, North Ryde, NSW, Australia) and plasma for biochemistry analysis (Siemens Advia 1800 chemistry analyzer, Erlangen, Germany). The plasma levels of the liver enzymes AST, ALT and ALP were assessed as indicators of hepatotoxicity.

As to `O=C1Nc2cc(Br)ccc2C1=O` [6-bromoisatin, 6-Bromoindole-2,3-dione], the cell morphology result was “morphological alterations, such as chromatin condensation, characteristic of the apoptotic process” in the series with HT29 cells (112 μM); “morphological alterations, such as chromatin condensation, characteristic of the apoptotic process” with HT29 cells (223 μM); “Apoptotic cells were also observed” in the series with HT29 cells (446 μM, in lower numbers than the two other doses). Moreover, in series [1] (0.05 mg/g daily oral gavage two weeks, distal colon, 6 h post AOM 10 mg/kg), the “increase in apoptotic index over the oil control” value came out at 2.3 fold. Further, in series [1] (0.1 mg/g daily oral gavage two weeks, distal colon), the “apoptotic index lower than the dose of 0.05 mg/g” value is reported as 40%. Moreover, the apoptotic index entry in series [1] (0.1 mg/g daily oral gavage two weeks, distal colon, compared with control) was “significantly induced apoptosis”; in series [1] (lowest concentration (0.025 mg/g) daily oral gavage two weeks, compared to AOM injected control), “not a significant difference”. Further, the colon crypt height entry with distal colon crypts is recorded as “no significant effect”. For the same compound, the “plasma level of AST, ALT and ALP” value in series [2] is “No significant difference”.
